The results in this text go back to patent US7691844B2, “Nonpeptide substituted spirobenzoazepines as vasopressin antagonists” (Ortho-McNeil Pharmaceutical, Inc., priority 2000, dated 2010).

One assay deals with V1a (Homo sapiens, UniProt P37288). In words: In-vitro receptor binding assay (3H-arginine-8-vasopressin), V1a. To be noted: for Receptor Binding V1a (% Inh. @ concentration in μM) / inhibition at 0.1 µM: @ 0.1 μM. A digest of the protocol:
(§1)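 Radioligand is 3H-arginine-8-vasopressin, incubated with receptor for one hour at room temperature, then filtered on GF/C plates and counted by scintillation. Non-specific binding was defined with 1.25 μM vasopressin, and results are given as % inhibition.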

In a further assay the target is human V2 receptor (Homo sapiens, UniProt P30518). In words: In-vitro receptor binding assay (3H-arginine-8-vasopressin), V2. A digest of the protocol:
as §1

Where [1] appears, read: read-out: Receptor Binding V2 (% Inh. @ concentration in μM).
[2] abbreviates: @ 10 μM, read-out: Receptor Binding V2 (% Inh. @ concentration in μM).
Where [3] appears, read: read-out: Receptor Binding V1a (% Inh. @ concentration in μM).
Setting [4] is: @ 0.1 μM, read-out: Receptor Binding V2 (% Inh. @ concentration in μM).

human V2 receptor, sequence (P30518 whole entry): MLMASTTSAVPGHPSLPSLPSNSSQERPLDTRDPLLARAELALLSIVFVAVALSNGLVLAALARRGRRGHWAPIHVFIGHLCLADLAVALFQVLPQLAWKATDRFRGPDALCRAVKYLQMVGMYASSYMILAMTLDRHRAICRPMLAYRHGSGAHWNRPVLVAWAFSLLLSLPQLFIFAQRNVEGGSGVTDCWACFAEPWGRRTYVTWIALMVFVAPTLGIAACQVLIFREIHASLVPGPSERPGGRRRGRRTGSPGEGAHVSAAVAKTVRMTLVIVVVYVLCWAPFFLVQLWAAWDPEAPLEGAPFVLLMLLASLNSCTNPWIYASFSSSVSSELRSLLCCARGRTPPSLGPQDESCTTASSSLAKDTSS
V1a, sequence (P37288 whole entry): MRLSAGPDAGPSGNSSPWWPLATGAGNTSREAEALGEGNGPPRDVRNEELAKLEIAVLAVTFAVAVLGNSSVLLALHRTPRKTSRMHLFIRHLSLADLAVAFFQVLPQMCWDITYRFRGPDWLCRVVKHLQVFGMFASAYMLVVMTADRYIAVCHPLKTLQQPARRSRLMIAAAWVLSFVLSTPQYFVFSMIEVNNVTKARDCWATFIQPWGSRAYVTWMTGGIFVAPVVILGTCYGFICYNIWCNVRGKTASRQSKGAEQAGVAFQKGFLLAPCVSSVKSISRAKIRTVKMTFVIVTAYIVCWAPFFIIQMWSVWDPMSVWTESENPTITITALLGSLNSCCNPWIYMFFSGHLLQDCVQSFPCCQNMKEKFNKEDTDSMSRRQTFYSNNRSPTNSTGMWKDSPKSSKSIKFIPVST

As to `COc1cc(-n2ccc(C=O)c2)ccc1C(=O)N1CCC2(C=CCCC2)Cc2ccccc21` (stereo not shown) [Compound 166], the IC50 on V1a came out at 0.114 µM. Also, the inhibition at 0.225 µM on human V2 receptor (@ 0.225 μM, read-out: Receptor Binding V2 (% Inh. @ concentration in μM)) stood at 5%.
Turning to `O=C(Nc1ccc(C(=O)N2CCC3(CCCCC3=O)Cc3ccccc32)cc1)c1ccccc1-c1ccccc1` (stereo not shown) [Compound 30, 4-(2-Phenylbenzoyl-4-aminobenzoyl)-4-aza-2′-oxo-[6,5]-spiro-[5,6]-benzododecane], the half-inhibitory concentration (IC50) on V1a is 0.035 µM; on human V2 receptor, 0.033 µM.
Take `Cc1ccc(F)cc1C(=O)Nc1ccc(C(=O)C2Cc3ccccc3CC3(C=CCCC3)C2)cc1` (stereo not shown) [Compound 131]: at V1a, the IC50 was 0.1 µM. Besides, the “Receptor Binding V2 (% Inh. @ concentration in μM)” value at human V2 receptor (@ 0.1 μM) came out at 3% @ 0.1.
On V1a, `O=C(c1ccc(OC2CCCC2)cc1)N1CCC2(C=CCCC2)Cc2ccccc21` (stereo not shown) [Compound 180] showed an IC50 of 0.088 µM. Also, the inhibition at 1 µM at human V2 receptor (setting [1]) stood at 20%.
On V1a, `O=C(c1ccc(F)c(F)c1)N1CCC2(C=CCCC2)Cc2ccccc21` (stereo not shown) [Compound 43] displayed an IC50 of 0.68 µM. Besides, at human V2 receptor (setting [2]), the inhibition at 10 µM was 42%.
`O=C(Nc1ccc(C(=O)N2CCC3(C=CCCC3)Cc3ccccc32)cc1)c1ccccc1F` (single isomer, unassigned) [Compound 108]: the IC50 turned out to be 0.024 µM at V1a and 0.57 µM at human V2 receptor.
At V1a, `O=C(c1ccc(-n2cccn2)c(-n2cccn2)c1)N1CCC2(C=CCCC2)Cc2ccccc21` (stereo not shown) [Compound 155] returned an IC50 of 0.13 µM. The inhibition at 1 µM at human V2 receptor (setting [1]) was determined as 2%.
Regarding `O=C(O)C1=CC2(CC1)CCN(C(=O)c1ccc(NC(=O)c3ccccc3F)cc1)c1ccccc1C2` (stereo not shown) [Compound 7, 4-(2-Fluorobenzoyl-4-aminobenzoyl)-3′-(carboxyl)-4-aza-[6,4]-spiro-[5,6]-benzoundec-2′-ene], the “Receptor Binding V1a (% Inh. @ concentration in μM)” value at V1a came out at 43% @ 0.1. Also, the “Receptor Binding V2 (% Inh. @ concentration in μM)” value at human V2 receptor (@ 0.1 μM) amounted to 15% @ 0.1.
Regarding `Cc1ccccc1NC(=O)c1ccc(C(=O)N2CCC3(C=CCCC3)Cc3ccccc32)cc1` (stereo not shown) [Compound 98], the IC50 at V1a came to 0.027 µM; on human V2 receptor, 0.2 µM.
`O=C(c1ccc(OCC2CCCCC2)cc1)N1CCC2(C=CCCC2)Cc2ccccc21` (stereo not shown) [Compound 183]: the IC50 at V1a was 0.25 µM. Further, the inhibition at 1 µM at human V2 receptor (setting [1]) is 18%.
In the case of `COc1cc(C(=O)N2CCC3(C=CCCC3)Cc3ccccc32)ccc1NC(=O)c1cc(F)ccc1C` (stereo not shown) [Compound 182], the IC50 came to 0.062 µM on V1a and 0.228 µM on human V2 receptor.
For `COC(=O)C1=CC2(CC1)CCN(C(=O)c1ccc(N)cc1)c1ccccc1C2` (stereo not shown) [Compound 134], the inhibition at 0.1 µM on V1a (setting [3]) worked out at 21%; on human V2 receptor (setting [4]), 16%.
In the case of `Cc1cccc(C(=O)Nc2ccc(C(=O)N3CCC4(C=CCCC4)Cc4ccccc43)cc2)c1` (stereo not shown) [Compound 85], the IC50 was 0.05 µM on V1a and 0.38 µM at human V2 receptor.
With `O=C(Nc1ccc(C(=O)N2CCC3(C=CCCC3)Cc3ccccc32)cc1)c1ccccc1` (stereo not shown) [Compound 67], the concentration for half-maximal inhibition (IC50) at V1a worked out at 0.02 µM; on human V2 receptor it was 0.39 µM.
`Cc1ccccc1C(=O)Nc1ccc(C(=O)N2CCC3(CCCCC3)Cc3ccccc32)cc1` [Compound 28] showed a concentration for half-maximal inhibition (IC50) on V1a of 0.25 µM. In addition, the “Receptor Binding V2 (% Inh. @ concentration in μM)” value at human V2 receptor (@ 10 μM) is given as 1% @ 10.
At V1a, `CC(C)Nc1ccc(C(=O)N2CCC3(C=CCCC3)Cc3ccccc32)cc1` (stereo not shown) [Compound 79] had an IC50 of 0.19 µM. Further, the inhibition at 1 µM at human V2 receptor (setting [1]) worked out at 19%.
Regarding `COC(=O)C1=CC2(CC1)CCN(C(=O)c1ccc(NC(=O)c3cc(F)ccc3F)cc1)c1ccccc1C2` (stereo not shown) [Compound 218], the IC50 on V1a was found to be 0.046 µM. Further, at human V2 receptor (@ 0.2 μM, read-out: Receptor Binding V2 (% Inh. @ concentration in μM)), the inhibition at 0.2 µM stood at 23%.
`O=C(c1ccc(-n2ccc(CO)c2)cc1)N1CCC2(C=CCCC2)Cc2ccccc21` (stereo not shown) [Compound 154] yielded an IC50 at V1a of 0.025 µM. The inhibition at 1 µM at human V2 receptor (setting [1]) turned out to be 36%.
Take `COc1cc(-n2ccc(CO)c2)ccc1C(=O)N1CCC2(C=CCCC2)Cc2ccccc21` (stereo not shown) [Compound 165]: the IC50 on V1a came to 0.042 µM. Moreover, the inhibition at 0.25 µM at human V2 receptor (setting [1]) stood at 25%.
Take `Cc1ccc(-c2ccccc2C(=O)Nc2ccc(C(=O)N3CCC4(C=CCCC4)Cc4ccccc43)c(Cl)c2)cc1` (stereo not shown) [Compound 117]: the “Receptor Binding V1a (% Inh. @ concentration in μM)” value at V1a is reported as 30% @ 0.1. Further, on human V2 receptor, the concentration for half-maximal inhibition (IC50) was determined as 0.1 µM.
Compound `COc1cc(-n2ccc(C=O)c2)ccc1C(=O)N1CCC2(C=C(C(=O)NCCN(C)C)CC2)Cc2ccccc21` (stereo not shown) [Compound 195] yielded an IC50 on V1a of 0.3 µM. Also, the inhibition at 1 µM at human V2 receptor (setting [1]) was 18%.
Compound `O=CC1=C[C@@]2(CC1)CCN(C(=O)c1ccc(NC(=O)c3ccccc3F)cc1Cl)c1ccccc1C2` [Compound 144] yielded an IC50 at V1a of 0.008 µM. For the same compound, at human V2 receptor (setting [4]), the inhibition at 0.1 µM turned out to be 9%.
On V1a, `CC(C)COc1ccc(C(=O)N2CCC3(C=CCCC3)Cc3ccccc32)cc1` (stereo not shown) [Compound 86] registered an IC50 of 0.065 µM. Besides, the inhibition at 1 µM at human V2 receptor (setting [1]) amounted to 10%.
Regarding `CCN(C(=O)NCCCN(C)C)C(=O)C1=CC2(CC1)CCN(C(=O)c1ccc(N)c(OC)c1)c1ccccc1C2` (stereo not shown) [Compound 188], the inhibition at 1 µM turned out to be 27% at V1a (setting [3]) and 3% at human V2 receptor (setting [1]).
With `O=CC1=CC2(CC1)CCN(C(=O)c1ccc(NC(=O)c3ccccc3-c3ccccc3)cc1)c1ccccc1C2` (stereo not shown) [Compound 2, 4-(2-Phenylbenzoyl-4-aminobenzoyl)-3′-(formyl)-4-aza-[6,4]-spiro-[5,6]-benzoundec-2′-ene], the IC50 at V1a came to 0.016 µM; on human V2 receptor, 0.029 µM.
For `Cc1ccc(C(=O)Nc2ccc(C(=O)N3CCC4(C=CCCC4)Cc4ccccc43)cc2)cc1C` (stereo not shown) [Compound 81], on V1a, the concentration for half-maximal inhibition (IC50) was determined as 0.14 µM. The inhibition at 1 µM at human V2 receptor (setting [1]) stood at 47%.
Consider `CCCCC(=O)N1CCC(Oc2ccc(C(=O)N3CCC4(C=CCCC4)Cc4ccccc43)cc2F)CC1` (stereo not shown) [Compound 174], for which the inhibition at 0.1 µM at V1a (setting [3]) amounted to 0%. For the same compound, the inhibition at 1 µM at human V2 receptor (setting [1]) stood at 8%.
On to `O=C(O)CNC(=O)C1=CC2(CC1)CCN(C(=O)c1ccc(NC(=O)c3ccccc3-c3ccccc3)cc1)c1ccccc1C2` (stereo not shown) [Compound 10], for which the IC50 on V1a worked out at 0.024 µM; at human V2 receptor, 0.018 µM.
The compound `O=C(Nc1ccc(C(=O)N2Cc3ccccc3CC3(C=CCCC3)C2)cc1)c1ccccc1F` (stereo not shown) [Compound 128, 4-(2-Fluorobenzoyl-4-aminobenzoyl)-3-aza-[6,5]-spiro-[5,6]-benzododec-2′-ene] yielded a concentration for half-maximal inhibition (IC50) on V1a of 0.042 µM. The inhibition at 0.1 µM on human V2 receptor (setting [4]) stood at 33%.
Consider `Cc1ccn(-c2ccc(C(=O)N3CCC4(C=C(C(=O)NCCN(C)C)CC4)Cc4ccccc43)cc2)n1` (stereo not shown) [Compound 209], for which the IC50 at V1a turned out to be 0.055 µM. At human V2 receptor (setting [1]), the inhibition at 1 µM stood at 43%.
Consider `O=C(Nc1ccccc1)Nc1ccc(C(=O)N2CCC3(C=CCCC3)Cc3ccccc32)cc1` (stereo not shown) [Compound 83], for which the IC50 on V1a is 0.17 µM. Also, the inhibition at 1 µM at human V2 receptor (setting [1]) was 25%.
Consider `O=C(c1ccc(-n2ccc(CO)c2)cc1Cl)N1CCC2(C=CCCC2)Cc2ccccc21` (stereo not shown) [Compound 164], for which the IC50 on V1a is 0.114 µM. At human V2 receptor (setting [1]), the inhibition at 0.25 µM was 20%.
For the compound `COc1cc(C(=O)N2CCC3(C=C(C(=O)NCCN(C)C)CC3)Cc3ccccc32)ccc1N` (stereo not shown) [Compound 187, 4-(4-Amino-3-methoxybenzoyl)-4-aza-3′-[2-(N,N-dimethylamino)ethylcarboxamido]-[6,4]-spiro-[5,6]-benzoundec-2′-ene], the inhibition at 1 µM on V1a (setting [3]) is 54%; on human V2 receptor (setting [1]), 7%.
Consider `Cc1ccc(C(=O)N2CCC3(C=CCCC3)Cc3ccccc32)cc1` (stereo not shown) [Compound 41], for which, at V1a, the IC50 is 0.32 µM. Further, at human V2 receptor (@ 10 μM), the “Receptor Binding V2 (% Inh. @ concentration in μM)” value came to 0% @ 10.
Take `O=C(NCCN1CCCC1)C1=CC2(CC1)CCN(C(=O)c1ccc(NC(=O)c3ccccc3-c3ccccc3)cc1)c1ccccc1C2` (stereo not shown) [Compound 135]: the half-inhibitory concentration (IC50) came to 0.013 µM at V1a and 0.024 µM at human V2 receptor.
On to `Cc1ccc(F)cc1C(=O)Nc1ccc(C(=O)N2CCC3(C=C(CN4CCN(c5ccncc5)CC4)CC3)Cc3ccccc32)c(Cl)c1` (stereo not shown) [Compound 142], for which the inhibition at 0.1 µM at V1a (setting [3]) stood at 25%; on human V2 receptor (setting [4]) it was 69%.
Consider `COC(=O)C1=CC2(CC1)CCN(C(=O)c1ccc(-n3ccc(C)n3)c(N)c1)c1ccccc1C2` (stereo not shown) [Compound 211], for which the inhibition at 0.125 µM at V1a (@ 0.125 μM, read-out: Receptor Binding V1a (% Inh. @ concentration in μM)) is 55%. For the same compound, on human V2 receptor (setting [1]), the inhibition at 1 µM was 45%.
At V1a, `O=C(c1cc(F)cc(F)c1)N1CCC2(C=CCCC2)Cc2ccccc21` (stereo not shown) [Compound 47] displayed an IC50 of 0.39 µM. The “Receptor Binding V2 (% Inh. @ concentration in μM)” value on human V2 receptor (@ 10 μM) turned out to be 29% @ 10.
Regarding `O=C(c1cccc(C(F)(F)F)c1)N1CCC2(C=CCCC2)Cc2ccccc21` (stereo not shown) [Compound 56], the IC50 at V1a was 4.3 µM. Moreover, at human V2 receptor (setting [2]), the inhibition at 10 µM is 0%.
Turning to `C[S+]([O-])c1ccc(C(=O)N2CCC3(C=CCCC3)Cc3ccccc32)cc1` (stereo not shown) [Compound 94], the half-maximal inhibitory concentration (IC50) at V1a worked out at 0.02 µM. Moreover, the inhibition at 1 µM on human V2 receptor (setting [1]) was 10%.
Regarding `O=C(Nc1ccc(C(=O)N2CCC3(CCCCC3=O)Cc3ccccc32)cc1)c1ccccc1-c1ccccc1` (stereo not shown) [Compound 31], the IC50 worked out at 0.021 µM at V1a and 0.054 µM at human V2 receptor.
`COc1cc(N)ccc1C(=O)N1CCC2(C=C(C(=O)NCCN(C)C)CC2)Cc2ccccc21` (stereo not shown) [Compound 194]: the inhibition at 1 µM at V1a (setting [3]) was 7%; at human V2 receptor (setting [1]), 6%.
With `O=C(Nc1ccc(C(=O)N2CCC3(C=CCCC3)Cc3ccccc32)cc1)c1c(Cl)cccc1Cl` (stereo not shown) [Compound 102], the values for the IC50 at V1a and on human V2 receptor were 0.046 µM and 0.159 µM, respectively.
Take `CC(=O)N1CCC(Oc2ccc(C(=O)N3CCC4(C=CCCC4)Cc4ccccc43)cc2)CC1` (stereo not shown) [Compound 224, 4-(4-(N-acetylpiperidin-4-yloxy)benzoyl)-4-aza-[6,5]-spiro-[5,6]-benzododec-2′-ene]: at V1a (setting [3]), the inhibition at 0.1 µM was 41%. Moreover, the “Receptor Binding V2 (% Inh.)” value at human V2 receptor (concentration not given) was determined as 0%.
